“And” between values parts separate entries of the source, which are not always exact repeats. Equal values may be shown once.
Tested on: human erythrocytes
Experiment: Untargeted metabolomics and 13C-glucose tracing of enolase inhibitor treated erythrocytes
Assay type: cell-based
Conditions: 0h
Experimental: Freshly collected erythrocytes were washed, resuspended to 10% hematocrit in buffer [25mM HEPES (pH 7.4), 120mM NaCl, 5.4mM KCl, 1.8mM CaCl2, and 1mM NaH2PO4], incubated for 1 hour at 37°C, then centrifuged at 2000xg for 5 minutes at 4°C, resuspended in fresh wash buffer to 30-40% hematocrit, and split into 210µL aliquots of packed erythrocytes. […] All samples were incubated at 37°C shaking at 500 RPM. Triplicate samples of supernatants and packed erythrocytes were collected at 0, 0.5, 1, and 6-hour intervals and snap-frozen in liquid N2.
RBC and media samples were extracted at 1:10 and 1:20 dilutions, respectively, in 5:3:2 MeOH : MeCN:H2O v/v/v, and supernatants analyzed on a Thermo Vanquish UHPLC coupled to a Thermo Q Exactive mass spectrometer, as extensively described ([Nemkov et al., 2015]; [Nemkov et al., 2017]). The extraction buffer was supplemented with 40uM 3-^13C lactate to allow absolute quantification of lactate isotopologues, including lactate generated via glycolysis ([1,2,3-^13C3] enriched) vs. the pentose phosphate pathway ([2,3-^13C2] enriched), as described ([Reisz et al., 2016]). Metabolite assignments, peak area integration and isotopologues distributions were determined using Maven (Princeton University) ([Nemkov et al., 2015]; [Nemkov et al., 2017]).
Data were auto-scaled and normalized to zero-hour time points. Metabolites were removed from the dataset if greater than 50% of the samples contained missing values or the relative standard deviation among replicates exceeded 25%. Additionally, data was filtered using the interquartile range to reduce near-constant values from the experiment by 5%.
A principal component analysis of preprocessed data was plotted with the 95% confidence interval minimum volume enclosing ellipsoid for each respective group (MetaboAnalyst, cluster, plotly). A two-way repeated measures analysis of variance (ANOVA) was performed with multiple comparisons corrected for using a false discovery rate p-value cutoff of 0.05. Metabolite-Pathway analysis was performed using the R package of MetaboAnalyst, as previously described ([Xia and Wishart, 2010]). Metabolite-Protein nodal analysis was performed using omicsnet.ca and as previously described ([Zhou and Xia, 2018]).

[1] = treated erythrocytes, one value per replicate sample, polarity +
[2] = treated erythrocytes, one value per replicate sample, polarity -
[3] = treated erythrocytes, replicate samples

CC(C)(C)C(=O)OCOP(=O)(OCOC(=O)C(C)(C)C)C1CCCN(O)C1=O (stereo not shown) [POMHEX]
AMP level (metabolomics signal) (replicate samples): 2.43E+06 and 4.08E+06 and 2.38E+06
ATP level (metabolomics signal) (replicate samples): 7.62E+03 and 7.58E+03 and 9.00E+03
Adenine level (metabolomics signal) (replicate samples): 1.31E+05 and 1.38E+05 and 1.32E+05
Cytosine level (metabolomics signal) (replicate samples): 8.55E+04 and 2.38E+05 and 4.74E+05
L-alanine level (metabolomics signal) (replicate samples): 7.28E+06 and 6.97E+06 and 9.28E+06
L-arginine level (metabolomics signal) (replicate samples): 7.34E+06 and 1.51E+07 and 4.28E+06
L-asparagine level (metabolomics signal) (replicate samples): 3.07E+06 and 3.14E+06 and 2.95E+06
L-aspartate level (metabolomics signal) (replicate samples): 3.52E+07 and 3.22E+07 and 3.54E+07
L-cysteine level (metabolomics signal) (replicate samples): 4.11E+05 and 4.42E+05 and 1.93E+05
L-glutamate level (metabolomics signal) (replicate samples): 3.91E+07 and 3.64E+07 and 4.16E+07
L-glutamine level (metabolomics signal) (replicate samples): 3.51E+07 and 3.65E+07 and 2.77E+07
L-histidine level (metabolomics signal) (replicate samples): 1.77E+06 and 1.86E+06 and 1.64E+06
L-isoleucine level (metabolomics signal) (replicate samples): 0.00E+00 and 2.79E+07 and 2.01E+07
L-leucine level (metabolomics signal) (replicate samples): 1.13E+08 and 1.29E+08 and 1.02E+08
L-lysine level (metabolomics signal) (replicate samples): 3.76E+06 and 3.91E+06 and 3.34E+06
L-methionine level (metabolomics signal) (replicate samples): 1.20E+07 and 1.28E+07 and 9.77E+06
L-phenylalanine level (metabolomics signal) (replicate samples): 3.89E+06 and 5.35E+06 and 4.43E+06
L-proline level (metabolomics signal) (replicate samples): 3.87E+07 and 4.04E+07 and 2.78E+07
L-serine level (metabolomics signal) (replicate samples): 2.27E+06 and 2.30E+06 and 2.07E+06
L-threonine level (metabolomics signal) (replicate samples): 3.34E+06 and 3.50E+06 and 3.23E+06
L-tryptophan level (metabolomics signal) (replicate samples): 4.61E+06 and 3.92E+06 and 4.51E+06
L-tyrosine level (metabolomics signal) (replicate samples): 1.31E+07 and 1.44E+07 and 1.06E+07
L-valine level (metabolomics signal) (replicate samples): 1.25E+08 and 1.20E+08 and 1.19E+08
dCMP level (metabolomics signal) (replicate samples): 2.66E+04 and 2.57E+04 and 1.91E+04
dTMP level (metabolomics signal) (replicate samples): 1.47E+06 and 1.26E+06 and 9.65E+05
glycine level (metabolomics signal) (replicate samples): 1.29E+06 and 1.21E+06 and 1.30E+06
N-Acyl-D-aspartate (C06380) metabolite signal [1]: 2.82E+05 and 3.24E+05 and 2.89E+05
Poly-gamma-D-glutamate (C05723) metabolite signal [1]: 2.28E+07 and 2.38E+07 and 1.86E+07
D-Ribitol 5-phosphate (C01068) metabolite signal [2]: 1.18E+04 and 2.78E+04 and 2.55E+04
D-glucono-1,5-lactone (C00198) metabolite signal [2]: 7.35E+05 and 6.39E+05 and 6.34E+05
L-Noradrenaline (C00547) metabolite signal [2]: 2.10E+05 and 2.67E+05 and 1.54E+05
Oxalosuccinate (C05379) metabolite signal [2]: 1.80E+05 and 1.89E+05 and 1.75E+05
Pyridoxamine (C00534) metabolite signal [2]: 3.47E+04 and 2.11E+04 and 4.13E+04
Thioredoxin disulfide (C00343) metabolite signal [2]: 8.56E+04 and 8.74E+04 and 6.44E+04
1-4-beta-D-Xylan (metabolite signal) [3]: 2.75E+05 and 3.19E+05 and 2.60E+05
2-Hydroxyglutarate/Citramalate (C02630) metabolite signal [3]: 1.87E+05 and 1.44E+05 and 1.36E+05
5-6-Dihydrothymine (C00906) metabolite signal [3]: 3.37E+05 and 3.23E+05 and 2.70E+05
5-10-Methenyltetrahydrofolate (metabolite signal) [3]: 3.52E+05 and 3.49E+05 and 3.48E+05
5-Hydroxyisourate (C11821) metabolite signal [3]: 4.58E+06 and 4.14E+06 and 5.16E+06
5-L-Glutamyl-taurine (metabolite signal) [3]: 1.13E+05 and 1.05E+05 and 1.57E+05
5-Oxoproline (metabolite signal) [3]: 1.19E+06 and 1.09E+06 and 9.91E+05
(S)(+)-Allantoin (C02350) metabolite signal [3]: 4.00E+04 and 4.50E+04 and 4.43E+04
Allantoate (C00499) metabolite signal [3]: 3.63E+05 and 4.40E+05 and 2.26E+05
Ascorbate (metabolite signal) [3]: 1.03E+05 and 1.39E+05 and 1.05E+05
CMP-N-acetylneuraminate (metabolite signal) [3]: 3.22E+04 and 2.63E+04 and 3.17E+04
Carnosine (metabolite signal) [3]: 2.22E+05 and 1.73E+05 and 2.52E+05
Citrate (C00158) metabolite signal [3]: 2.73E+04 and 3.19E+04 and 2.59E+04
Creatine (metabolite signal) [3]: 2.64E+08 and 2.63E+08 and 2.96E+08
Creatinine (metabolite signal) [3]: 3.90E+06 and 3.59E+06 and 3.78E+06
Cys-Gly (metabolite signal) [3]: 1.91E+06 and 2.03E+06 and 2.13E+06
D-Glucosamine (metabolite signal) [3]: 6.56E+04 and 1.26E+05 and 1.11E+05
D-Glucose (C00031) metabolite signal [3]: 7.03E+06 and 7.96E+06 and 6.07E+06
D-Ribose (C00121) metabolite signal [3]: 2.42E+05 and 2.08E+05 and 2.00E+05
Dehydroascorbate (metabolite signal) [3]: 6.66E+03 and 1.26E+04 and 9.16E+03
Dihydrofolate (metabolite signal) [3]: 2.17E+06 and 2.08E+06 and 1.28E+06
Dimethylglycine (metabolite signal) [3]: 1.13E+06 and 1.12E+06 and 1.22E+06
Diphosphate (C00013) metabolite signal [3]: 2.29E+03 and 2.81E+03 and 1.30E+03
Fumarate (C00122) metabolite signal [3]: 1.70E+05 and 1.53E+05 and 1.29E+05
Glutathione (C00051) metabolite signal [3]: 1.29E+08 and 1.42E+08 and 1.45E+08
Glutathione disulfide (metabolite signal) [3]: 4.07E+05 and 2.99E+05 and 3.44E+05
Hypoxanthine (C00262) metabolite signal [3]: 1.23E+05 and 8.50E+04 and 1.07E+05
IMP (C00130) metabolite signal [3]: 2.07E+04 and 4.13E+04 and 2.42E+04
Inosine (C00294) metabolite signal [3]: 1.23E+05 and 1.19E+05 and 1.09E+05
L-Citrulline (metabolite signal) [3]: 2.18E+06 and 2.13E+06 and 2.77E+06
L-Homoserine (metabolite signal) [3]: 1.85E+05 and 2.19E+05 and 1.31E+05
Lactate (C01432) metabolite signal [3]: 7.44E+06 and 7.84E+06 and 7.12E+06
Malate (C00149) metabolite signal [3]: 4.07E+05 and 3.13E+05 and 3.03E+05
Mannitol (C00392) metabolite signal [3]: 1.01E+05 and 1.11E+05 and 1.22E+05
N-Acetylneuraminate (metabolite signal) [3]: 3.05E+04 and 3.27E+04 and 2.27E+04
N-Glycoloyl-neuraminate (metabolite signal) [3]: 2.02E+05 and 2.52E+05 and 1.61E+05
NAD+ (C00003) metabolite signal [3]: 3.20E+05 and 3.25E+05 and 4.11E+05
Nicotinamide (C00153) metabolite signal [3]: 2.56E+07 and 2.61E+07 and 2.89E+07
Ornithine (metabolite signal) [3]: 2.51E+06 and 2.56E+06 and 2.47E+06
Oxaloacetate (C00036) metabolite signal [3]: 4.82E+04 and 5.32E+04 and 4.35E+04
Phosphoserine (metabolite signal) [3]: 1.31E+05 and 1.59E+05 and 1.52E+05
Putrescine (metabolite signal) [3]: 5.04E+04 and 6.26E+04 and 7.87E+04
Pyridoxal (C00250) metabolite signal [3]: 5.06E+04 and 4.81E+04 and 5.68E+04
Pyruvate (C00022) metabolite signal [3]: 8.21E+05 and 7.91E+05 and 7.06E+05
S-Glutathionyl-L-cysteine (metabolite signal) [3]: 1.68E+05 and 1.57E+05 and 8.75E+04
Sedoheptulose 1-phosphate (C06222) metabolite signal [3]: 4.53E+04 and 4.14E+04 and 2.92E+04
Spermidine (metabolite signal) [3]: 9.43E+06 and 1.01E+07 and 9.63E+06
Spermine (metabolite signal) [3]: 8.86E+06 and 9.58E+06 and 9.08E+06
Succinate (C00042) metabolite signal [3]: 1.10E+05 and 1.06E+05 and 1.08E+05
Thymidine (C00214) metabolite signal [3]: 1.93E+04 and 1.39E+04 and 1.28E+04
UDP (C00015) metabolite signal [3]: 3.47E+05 and 4.31E+05 and 2.43E+05
UDP-N-acetyl-D-glucosamine (metabolite signal) [3]: 2.77E+04 and 2.13E+04 (2×)
UDP-glucose (C00029) metabolite signal [3]: 8.05E+04 and 6.15E+04 and 6.31E+04
Urate (C00366) metabolite signal [3]: 4.79E+04 and 4.62E+04 and 3.28E+04
Xanthine (C00385) metabolite signal [3]: 3.87E+05 and 3.78E+05 and 3.91E+05
alpha-D-Glucosamine 1-phosphate (metabolite signal) [3]: 1.72E+06 and 1.66E+06 and 2.32E+06
alpha-D-Ribose 1-phosphate (C00620) metabolite signal [3]: 1.60E+05 and 1.43E+05 and 1.11E+05
gamma-Glutamyl-gamma-aminobutyrate (metabolite signal) [3]: 8.08E+04 and 5.90E+04 and 1.10E+05
gamma-L-Glutamyl-D-alanine (metabolite signal) [3]: 2.48E+04 and 2.19E+04 and 1.85E+04
gamma-L-Glutamyl-L-cysteine (metabolite signal) [3]: 2.81E+04 and 3.64E+04 and 2.51E+04

Reference: PMC8482815, “Targeting Host Glycolysis as a Strategy for Antimalarial Development” (Frontiers in Cellular and Infection Microbiology, 2021)
